Test results taken from publication PMC7734281, “Functionalized Oxoindolin Hydrazine Carbothioamide Derivatives as Highly Potent Inhibitors of Nucleoside Triphosphate Diphosphohydrolases” (Frontiers in Pharmacology, 2020).

Tests used:
Assay type in all cases: biochemical
[1] = biological target: T1, m-NTPDase3 (Mus musculus, UniProt Q8BFW6); assay: m-NTPDase3 inhibition, malachite green assay; conditions: for inhibition at 100 µM: compound 100 µM; for IC50: mean ± SEM of three independent experiments
T1 construct: made in house; host or cells: COS-7 cells, transient transfection; crude protein extract after sonication
T1 sequence (Q8BFW6 1-529): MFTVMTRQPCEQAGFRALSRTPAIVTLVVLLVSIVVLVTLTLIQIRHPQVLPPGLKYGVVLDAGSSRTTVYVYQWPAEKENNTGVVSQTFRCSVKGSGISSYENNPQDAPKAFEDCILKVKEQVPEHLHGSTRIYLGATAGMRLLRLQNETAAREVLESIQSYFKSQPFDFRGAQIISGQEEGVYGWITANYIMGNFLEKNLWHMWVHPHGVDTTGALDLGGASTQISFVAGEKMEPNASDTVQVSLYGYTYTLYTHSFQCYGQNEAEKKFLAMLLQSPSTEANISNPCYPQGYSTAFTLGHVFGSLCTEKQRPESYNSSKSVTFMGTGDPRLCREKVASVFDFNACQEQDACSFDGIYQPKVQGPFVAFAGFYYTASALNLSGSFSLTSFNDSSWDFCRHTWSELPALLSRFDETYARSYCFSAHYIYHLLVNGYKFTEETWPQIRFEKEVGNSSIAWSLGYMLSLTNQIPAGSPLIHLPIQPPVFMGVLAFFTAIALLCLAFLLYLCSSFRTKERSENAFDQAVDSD
Protocol: (§1) COS-7 cells were transfected with plasmids expressing human or mouse NTPDases1, -2, -3, and -8 as previously described ([Levesque et al., 2007]; [Lecka et al., 2014]) Briefly, the confluent cells were transferred to Dulbecco’s Modified Eagle’s Medium containing no fetal bovine serum. Then, these cells were incubated with plasmid DNA (6 µg) and Lipofectamine reagent (24 µl) at 37°C. After 5 h, transfection was terminated with the addition of an equal volume of DMEM/F-12 (supplemented with 20% FBS) and cells were collected by harvesting after 40–72 h.
(§2) To prepare protein extracts, transfected COS-7 cells were washed three times with tris-saline buffer while temperature was maintained at 4°C. Then cells were scraped and resuspended in harvesting buffer containing 95 mM NaCl, 45 mM tris and 0.1 mM phenylmethylsulfonyl fluoride (pH 7.5). Cells were again washed twice by centrifugation for 5 min at 300 × g at 4°C and then resuspended in harvesting buffer (supplemented with 10 μg ml aprotinin). Following sonication, cellular debris was isolated by 10 min centrifugation at 300 g at 4°C. Subsequently, supernatant was removed very carefully and protein concentration was determined by using Bradford microplate assay while using the bovine serum albumin as a standard ([Bradford, 1976]).
(§3) The inhibitory effects of synthesized compounds on h-NTPDase1, -2, -3, and -8 were determined as described previously, although with slight modifications ([Martín-Satué et al., 2009]). Assay was conducted in a reaction medium containing 50 mM tris-HCl and 5 mM CaCl2 (pH 7.4). All the test compounds were dissolved in dimethyl sulfoxide (DMSO, 10%) and initially screened at a concentration of 100 µM. A reaction mixture containing 55 µl of assay buffer, 10 µl of test compound solution and 10 µl of h-NTPDase1 (58 ng/well) or h-NTPDase2 (79 ng/well) or h-NTPDase3 (163 ng/well) or h-NTPDase8 (66 ng/well) was incubated at 37°C for 10 min. Following the incubation, a 10 µl solution of adenosine triphosphate (ATP, 100 µm) was added as substrate and reaction mixture was again incubated for 15 min at 37°C. The reaction was stopped by adding malachite green reagent (15 µl) and placed at room temperature for 4 to 6 min. Finally, absorbance was measured at 630 nm by using Omega FLUOstar microplate reader (BMG Labtech, Ortenberg, Germany) and % inhibitions were calculated. For compounds showing more than 50% inhibition of any isozyme, dose response curves were generated and their IC50 values were determined. Three separate enzyme inhibition assays were carried out in triplicate and dose-response curve were generated by using PRISM 5.0 (GraphPad, San Diego, United States).
(§4) Same procedure was adopted to determine the inhibitory effects of compounds on mouse NTPDases (m-NTPDases). However, the amount of protein used was as follows: m-NTPDase1 (82 ng/well), m-NTPDase2 (57 ng/well), m-NTPDase3 (110 ng/well) and m-NTPDase8 (79 ng/well)

[2] = biological target: T2, m-NTPDase1 (Mus musculus, UniProt P55772); assay: m-NTPDase1 inhibition, malachite green assay; conditions: for inhibition at 100 µM: compound 100 µM; for IC50: mean ± SEM of three independent experiments
T2 construct: made in house; host or cells: COS-7 cells, transient transfection; crude protein extract after sonication
T2 sequence (P55772 1-510): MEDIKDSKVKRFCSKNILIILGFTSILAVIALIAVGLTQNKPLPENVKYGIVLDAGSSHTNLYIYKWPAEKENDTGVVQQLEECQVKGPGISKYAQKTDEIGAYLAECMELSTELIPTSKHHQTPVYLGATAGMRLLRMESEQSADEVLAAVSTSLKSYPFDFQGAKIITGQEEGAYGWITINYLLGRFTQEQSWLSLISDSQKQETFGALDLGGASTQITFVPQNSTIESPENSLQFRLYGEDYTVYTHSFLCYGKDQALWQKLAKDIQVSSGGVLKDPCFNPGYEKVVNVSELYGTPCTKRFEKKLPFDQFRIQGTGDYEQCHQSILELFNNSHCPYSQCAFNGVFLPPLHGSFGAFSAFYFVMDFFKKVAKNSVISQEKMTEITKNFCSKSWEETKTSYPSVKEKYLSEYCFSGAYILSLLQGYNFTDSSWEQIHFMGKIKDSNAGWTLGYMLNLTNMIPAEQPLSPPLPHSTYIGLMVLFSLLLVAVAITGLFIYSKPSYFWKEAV
Protocol: as §1, §2, §3, §4

[3] = biological target: T3, h-NTPDase8 (Homo sapiens, UniProt Q5MY95); assay: h-NTPDase8 inhibition, malachite green assay; conditions: for inhibition at 100 µM: compound 100 µM; for IC50: ATP 100 µM substrate, mean ± SEM of three independent experiments
T3 construct: made in house; host or cells: COS-7 cells, transient transfection; crude protein extract after sonication
T3 sequence (Q5MY95 1-495): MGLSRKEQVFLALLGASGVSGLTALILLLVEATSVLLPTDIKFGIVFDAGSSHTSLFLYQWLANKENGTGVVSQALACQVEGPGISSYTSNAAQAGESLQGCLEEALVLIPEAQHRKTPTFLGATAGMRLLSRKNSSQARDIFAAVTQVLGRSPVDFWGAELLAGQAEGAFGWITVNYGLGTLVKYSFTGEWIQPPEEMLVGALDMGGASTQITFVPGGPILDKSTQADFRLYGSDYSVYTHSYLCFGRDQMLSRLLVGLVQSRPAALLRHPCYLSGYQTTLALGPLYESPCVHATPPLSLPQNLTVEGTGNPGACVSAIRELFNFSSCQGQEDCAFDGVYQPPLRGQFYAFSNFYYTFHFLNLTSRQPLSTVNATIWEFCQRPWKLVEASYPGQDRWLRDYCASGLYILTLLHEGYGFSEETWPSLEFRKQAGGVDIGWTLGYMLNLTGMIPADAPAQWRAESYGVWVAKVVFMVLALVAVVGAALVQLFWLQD
Protocol: as §1, §2, §3

inhibition at 100 µM [1] | inhibition at 100 µM [2] | inhibition at 100 µM [3] | Ki [1] | IC50 [1] | Ki [2] | IC50 [2] | Ki [3] | IC50 [3] | Compound
31% | 38% | 24% |  |  |  |  |  |  | O=C1Nc2ccccc2/C1=N/NC(=S)Nc1ccccc1 [8a, (Z)-2-(2-oxoindolin-3-ylidene)-N-phenylhydrazine-1-carbothioamide]
 |  | < 50% | 0.03 µM | 0.32 ± 0.04 µM | 0.03 µM | 3.22 ± 0.19 µM |  |  | O=C1Nc2ccccc2/C1=N/NC(=S)Nc1c(F)cccc1F [8l, (Z)-N-(2,6-difluorophenyl)-2-(2-oxoindolin-3-ylidene)hydrazine-1-carbothioamide]
28% | 14% |  |  |  |  |  |  |  | O=C1Nc2ccccc2/C1=N/NC(=S)Nc1ccc([N+](=O)[O-])cc1 [8b, (Z)-N-(4-nitrophenyl)-2-(2-oxoindolin-3-ylidene)hydrazine-1-carbothioamide]
 | 28% |  |  |  |  |  | 0.11 µM | 0.24 ± 0.02 µM | O=C1Nc2ccccc2/C1=N/NC(=S)Nc1ccc(Cl)cc1 [8c, (Z)-N-(4-chlorophenyl)-2-(2-oxoindolin-3-ylidene)hydrazine-1-carbothioamide]
32% |  | < 50% |  |  | 0.04 µM | 4.14 ± 0.13 µM |  |  | O=C1Nc2ccccc2/C1=N/NC(=S)NCc1ccccc1 [8f, (Z)-N-benzyl-2-(2-oxoindolin-3-ylidene)hydrazine-1-carbothioamide]
30% | 24% | 19% |  |  |  |  |  |  | COc1ccc(OC)c(NC(=S)N/N=C2\C(=O)Nc3ccccc32)c1 [8j, (Z)-N-(2,5-dimethoxyphenyl)-2-(2-oxoindolin-3-ylidene)hydrazine-1-carbothioamide]
 |  |  | 3.07 µM | 31 ± 2 µM |  | > 100 µM |  | > 100 µM | Cc1ccc(C(=O)Nc2ccc(S(=O)(=O)O)c3cc(S(=O)(=O)O)cc(S(=O)(=O)O)c23)cc1NC(=O)c1cccc(NC(=O)Nc2cccc(C(=O)Nc3cc(C(=O)Nc4ccc(S(=O)(=O)O)c5cc(S(=O)(=O)O)cc(S(=O)(=O)O)c45)ccc3C)c2)c1 [Suramin, reference compound]
36% | 42% | 46% |  |  |  |  |  |  | COc1ccc(NC(=S)NNC2=c3ccccc3=NC2=O)cc1 [8k, (Z)-N-(4-methoxyphenyl)-2-(2-oxoindolin-3-ylidene)hydrazine-1-carbothioamide]
29% | 41% | 33% |  |  |  |  |  |  | O=C1Nc2ccccc2/C1=N/NC(=S)Nc1ccc(F)cc1 [8d, (Z)-N-(4-fluorophenyl)-2-(2-oxoindolin-3-ylidene)hydrazine-1-carbothioamide]
 |  | 38% | 0.24 µM | 2.41 ± 0.15 µM | 0.04 µM | 3.6 ± 0.02 µM |  |  | CCNC(=S)N/N=C1\C(=O)Nc2ccccc21 [8m, (Z)-N-ethyl-2-(2-oxoindolin-3-ylidene)hydrazine-1-carbothioamide]
 |  |  | 0.07 µM | 0.7 ± 0.05 µM | 0.006 µM | 0.6 ± 0.03 µM |  |  | COc1cccc(NC(=S)N/N=C2\C(=O)Nc3ccccc32)c1 [8e, (Z)-N-(3-methoxyphenyl)-2-(2-oxoindolin-3-ylidene)hydrazine-1-carbothioamide]
31% | 29% | 22% |  |  |  |  |  |  | Cc1ccc(NC(=S)N/N=C2\C(=O)Nc3ccccc32)cc1 [8h, (Z)-2-(2-oxoindolin-3-ylidene)-N-(p-tolyl)hydrazine-1-carbothioamide]
32% | 20% | 17% |  |  |  |  |  |  | Cc1cccc(C)c1NC(=S)N/N=C1\C(=O)Nc2ccccc21 [8i, (Z)-N-(2,6-dimethylphenyl)-2-(2-oxoindolin-3-ylidene)hydrazine-1-carbothioamide]
27% | 48% | 7% |  |  |  |  |  |  | O=C1Nc2ccccc2/C1=N/NC(=S)Nc1cccc(Cl)c1 [8g, (Z)-N-(3-chlorophenyl)-2-(2-oxoindolin-3-ylidene)hydrazine-1-carbothioamide]
